How the values were obtained:
human keratinocytes = experiment: Cell protecting effect against UVB on human keratinocytes cultivated in vitro (number of keratinocytes, released LDH); assay type: cell-based; conditions: UVB 50 mJ/cm^2, 0.03%
Method: Method: the effect of UVB radiation was investigated in vitro on keratinocytes by determining the release of the cytoplasm enzyme LDH (lactate dehydrogenase). This enzyme serves as a marker for cell damage.
To carry out the test, a defined medium (DMEM) containing fetal calf serum was inoculated with the keratinocytes and added to the plant extract (diluted with saline solution) 72 hours after inoculation.
The keratinocytes were then exposed to a UVB dose (50 mJ/cm^2-tubes: DUKE FL40E).
After incubation for another day ay 37° C./5% CO2. the LDH content in the supernatant phase was determined. The LDH (lactate dehydrogenase) content was spectrophotometrically determined by determining the NADH content during the LDH-catalyzed conversion of pyruvate to lactate by Bonnekoh's method (Bonnekoh B. et al.; Dermatol. Research; 282; 325-329; 1990).
The number of adhering keratinocytes was determined by a DNA assay based on the fluorescence measurement of fluorochromium that binds to cellular DNA using Desaulniers' method (Desaulniers D. et al.; Toxicol. in vitro; 12; 409-422; 1998) and a particle counter. Another test was carried out for comparison using a standard anti-inflammatory, acetyl salicyclic acid.

human fibroblasts = experiment: Cell protecting effect against UVA on human fibroblasts cultivated in vitro (MDA level, protein content); assay type: cell-based; conditions: UVA 365 nm, + vitamin E, concentration not given
Description: The lipoperoxides are degraded to malonaldialdehyde which will crosslink many biological molecules, such as proteins and nuclein bases (enzyme inhibition or mutagenesis).
Method: To carry out these tests, a defined culture medium (DMEM) containing the fibroblasts was inoculated with foetal calf serum and added to the plant extract (in the defined medium containing 10% foetal serum) 72 hours after inoculation. Incubation was carried out at 37° C./5% CO2.
After incubation for 48 hours at 37° C./5% CO2, the culture medium was replaced by saline solution (physioloigcal NaCl solution) and the fibroblasts were exposed to a dose of UVA (365 nm, 20 J/cm^2; tubes: MAZDA FLUOR TFWN40).
After the exposure to UVA, the MDA level (malonaldialdehyde level) in the supernatant sodium chloride solution was quantitatively determined by reaction with thiobarbituric acid. The protein content was determined by Bradford's method using a Coomassie Brilliant Blue color (Bradford, Analytical Biochem., 72; 248-254; 1976).

| Compound | Content of LDH released (human keratinocytes; UVB alone = 100) | Number of keratinocytes (human keratinocytes; control without UV = 100) | MDA level (human fibroblasts; 20 J/cm^2) | Protein content (human fibroblasts) |
| --- | --- | --- | --- | --- |
| CC(=O)Oc1ccccc1C(=O)O [acetylsalicylic acid] | 3(2) | 76(5) | – | – |
| vitamin E | – | – | 31(4) % versus control | 102(11) % versus control |

Reference: US20070134193A1, “Cosmetic and/or pharmaceutical preparations” (priority 2001, published 2007)
